From EP4238971A1, “SUBSTITUTED ISOXAZOLINE DERIVATIVES” (BASF SE, priority 2022, dated 2023)
Read-outs that look alike come from different tables or passages of the source.

Experiments:
Format in all cases: in vivo
Plutella xylostella = assay: Diamond back moth (Plutella xylostella), cabbage leaf disc dip test; conditions: for mortality at 300 ppm: Plutella xylostella, foliar, read-out: mortality in comparison with untreated controls
Procedure: B.5. Diamond back moth (Plutella xylostella)
The active compound was dissolved at the desired concentration in a mixture of 1:1 (vol:vol) distilled water: acetone. Surfactant (Kinetic) was added at a rate of 0.01% (vol/vol). The test solution was prepared at the day of use. Cabbage leaf discs (60mm in diameter) were dipped in test solution and air-dried. Treated leaves were placed in petri dishes lined with moistened filter paper and inoculated with ten 3rd instar larvae. Mortality was recorded 72 hours after treatment. Feeding damages were also recorded using a scale of 0-100%.

Heliothis virescens = assay: Tobacco budworm (Heliothis virescens) control, insect diet in 96-well microtiter plates; conditions: for mortality at 2500 ppm: Heliothis virescens, 120 h, read-out: mortality in comparison with untreated controls
Procedure: (§1) If not otherwise specified, the test solutions were prepared as follows: The active compound was dissolved at the desired concentration in a mixture of 1:1 (vol:vol) distilled water:acetone. The test solution was prepared at the day of use.
(§2) Test solutions were prepared in general at a concentration of 2500ppm (wt/vol).
B.3. Tobacco budworm (Heliothis virescens)
For evaluating control of Tobacco Budworm, the test unit consisted of 96-well-microtiter plates containing an insect diet and 15-25 H. virescens eggs. The compounds were formulated using a solution containing 75% v/v water and 25% v/v DMSO. Different concentrations of formulated compounds were sprayed onto the insect diet at 10µl, using a custom-built micro atomizer, at two replications. After application, microtiter plates were incubated at about 28 ± 1°C and about 80 ± 5 % relative humidity for 5 days. Egg and larval mortality was then visually assessed.

Dichromothrips corbetti = assay: Orchid thrips (Dichromothrips corbetti), floral-immersion technique; conditions: for mortality at 300 ppm: Dichromothrips corbetti, read-out: mortality in comparison with untreated controls
Procedure: B.6. Orchid thrips (Dichromothrips corbetti)
Dichromothrips corbetti adults used for bioassay were obtained from a colony maintained continuously under laboratory conditions. For testing purposes, the test compound was diluted in a 1:1 mixture of acetone:water (vol:vol), plus Kinetic at a rate of 0.01% v/v.
Thrips potency of each compound was evaluated by using a floral-immersion technique. Each orchid petal was dipped into treatment solution and allowed to dry in Petri dishes. Treated petals were placed into individual re-sealable plastic along with about 20 adult thrips. All test arenas were held under dark condition and a temperature of about 28°C for duration of the assay. The percent mortality was recorded 72 hours after treatment.

Anthonomus grandis = assay: Boll weevil (Anthonomus grandis) control, insect diet in 96-well microtiter plates; conditions: for mortality in comparison with untreated controls: 2500ppm; for mortality at 2500 ppm: Anthonomus grandis, 120 h, read-out: mortality in comparison with untreated controls
Procedure: as §1, §2
B.1. Boll weevil (Anthonomus grandis)
For evaluating control of boll weevil, the test unit consisted of 96-well-microtiter plates containing an insect diet and 5-10 A. grandis eggs.
The compounds were formulated using a solution containing 75% v/v water and 25% v/v DMSO. Different concentrations of formulated compounds were sprayed onto the insect diet at 5µl, using a custom-built micro atomizer, at two replications.
After application, microtiter plates were incubated at about 25 ± 1°C and about 75 ± 5 % relative humidity for 5 days. Egg and larval mortality were then visually assessed.

Myzus persicae = assay: Green peach aphid (Myzus persicae), mixed life stages, systemic test via artificial diet under membrane; conditions: for mortality at 2500 ppm: Myzus persicae, 72 h, read-out: mortality in comparison with untreated controls
Procedure: as §1, §2
B.2. Green peach aphid (Myzus persicae) (mixed life stages)
For evaluating control of Green Peach Aphid through systemic means the test unit consisted of 96-well-microtiter plates containing liquid artificial diet under an artificial membrane. The compounds were formulated using a solution containing 75% v/v water and 25% v/v DMSO. Different concentrations of formulated compounds were pipetted into the aphid diet, using a custom-built pipette, at two replications. After application, 5 - 8 adult aphids were placed on the artificial membrane inside the microtiter plate wells. The aphids were then allowed to suck on the treated aphid diet and incubated at about 23 ± 1°C and about 50 ± 5 % relative humidity for 3 days. Aphid mortality and fecundity was then visually assessed.

Aedes aegypti = assay: whole plant or invertebrate; conditions: larval mortality visually assessed after 2 days; for mortality in comparison with untreated controls: 2500ppm; for mortality at 2500 ppm: Aedes aegypti, 48 h, read-out: mortality in comparison with untreated controls
Procedure: as §1, §2
B.4. Yellow fever mosquito (Aedes aegypti)
For evaluating control of Yellow Fever Mosquito, the test unit consisted of 96-well-microtiter plates containing 200µl of tap water per well and 5-15 freshly hatched A. aegypti larvae. The active compounds were formulated using a solution containing 75% (v/v) water and 25% (v/v) DMSO. Different concentrations of formulated compounds or mixtures were sprayed onto the insect diet at 2.5µl, using a custom-built micro atomizer, at two replications.
After application, microtiter plates were incubated at 28 ± 1°C, 80 ± 5 % RH for 2 days. Larval mortality was then visually assessed.

Spodoptera eridania = assay: Southern armyworm (Spodoptera eridania), 2nd instar larvae, sprayed lima bean plants; conditions: for mortality in comparison with untreated controls: 300ppm, 2nd instar larvae, assessed 4 days after treatment; for mortality at 300 ppm: Spodoptera eridania, 96 h, read-out: mortality in comparison with untreated controls
Procedure: B.7. Southern armyworm (Spodoptera eridania), 2nd instar larvae
The active compounds were formulated by a Tecan liquid handler in 100% cyclohexanone as a 10'000 ppm solution supplied in tubes. The 10'000 ppm solution was serially diluted in 100% cyclohexanone to make interim solutions. These served as stock solutions for which final dilutions were made by the Tecan in 50% acetone:50% water (v/v) into 10 or 20ml glass vials. A nonionic surfactant (Kinetic®) was included in the solution at a volume of 0.01% (v/v). The vials were then inserted into an automated electrostatic sprayer equipped with an atomizing nozzle for application to plants/insects. Lima bean plants (variety Sieva) were grown 2 plants to a pot and selected for treatment at the 1st true leaf stage. Test solutions were sprayed onto the foliage by an automated electrostatic plant sprayer equipped with an atomizing spray nozzle. The plants were dried in the sprayer fume hood and then removed from the sprayer. Each pot was placed into perforated plastic bags with a zip closure. Ten to 11 armyworm larvae were placed into the bag and the bags zipped closed. Test plants were maintained in a growth room at about 25°C and about 20-40% relative humidity for 4 days, avoiding direct exposure to fluorescent light (14:10 light:dark photo-period) to prevent trapping of heat inside the bags. Mortality and reduced feeding were assessed 4 days after treatment, compared to untreated control plants.

[1] = 300ppm, 3rd instar larvae, mortality recorded 72 hours after treatment
[2] = 2500ppm, egg and larval mortality visually assessed after 5 days
[3] = 300ppm, adult thrips, mortality recorded 72 hours after treatment
[4] = egg and larval mortality visually assessed after 5 days
[5] = 2500ppm, aphid mortality visually assessed after 3 days

Compound	mortality in comparison with untreated controls (Plutella xylostella; [1])	mortality in comparison with untreated controls (Heliothis virescens; [2])	mortality in comparison with untreated controls (Dichromothrips corbetti; [3])	mortality in comparison with untreated controls (Anthonomus grandis; [4])	mortality in comparison with untreated controls (Myzus persicae; [5])	mortality in comparison with untreated controls (Aedes aegypti)	mortality in comparison with untreated controls (Spodoptera eridania)	mortality at 300 ppm (Plutella xylostella; 72 h) [%]	mortality at 2500 ppm (Heliothis virescens) [%]	mortality at 300 ppm (Dichromothrips corbetti; 72 h) [%]	mortality at 2500 ppm (Anthonomus grandis) [%]	mortality at 2500 ppm (Aedes aegypti) [%]	also measured
N#Cc1ccc(NC2=NOC(c3cc(Cl)cc(Cl)c3)(C(F)(F)F)C2)cc1-n1cncn1 (stereo not shown) [I-1]	at least 75%	at least 75%	at least 75%	at least 75%	at least 75%	at least 75%	at least 75%	–	–	–	–	–	–
N#Cc1ccc(NC2=NOC(c3cc(Cl)c(F)c(Cl)c3)(C(F)(F)F)C2)cc1-n1cncn1 (stereo not shown) [I-4, 4-[[5-(3,5-dichloro-4-fluoro-phenyl)-5-(trifluoromethyl)-4H-isoxazol-3-yl]amino]-2-(1,2,4-triazol-1-yl)benzonitrile]	–	–	–	–	–	–	–	≥ 75	≥ 75	≥ 75	≥ 75	≥ 75	mortality at 2500 ppm (Myzus persicae): ≥ 75%; mortality at 300 ppm (Spodoptera eridania): ≥ 75%
N#Cc1ccc(NC2=NOC(c3cccc(C(F)(F)F)c3)(C(F)(F)F)C2)cc1-n1cncn1 (stereo not shown) [I-5]	at least 75%	at least 75%	at least 75%	at least 75%	at least 75%	at least 75%	at least 75%	–	–	–	–	–	–
N#Cc1ccc(NC2=NOC(c3ccc(F)c(Cl)c3)(C(F)(F)F)C2)cc1-n1cncn1 (stereo not shown) [I-6]	at least 75%	at least 75%	at least 75%	at least 75%	at least 75%	at least 75%	at least 75%	–	–	–	–	–	–
CN(C1=NOC(c2cc(Cl)cc(Cl)c2)(C(F)(F)F)C1)c1ccc(C#N)c(-n2cncn2)c1 (stereo not shown) [I-7]	at least 75%	at least 75%	at least 75%	at least 75%	at least 75%	at least 75%	at least 75%	–	–	–	–	–	–
CN(C1=NOC(c2ccc(F)c(Cl)c2)(C(F)(F)F)C1)c1ccc(C#N)c(-n2cncn2)c1 (stereo not shown) [I-9]	at least 75%	at least 75%	at least 75%	at least 75%	at least 75%	at least 75%	at least 75%	–	–	–	–	–	–
Fc1c(Cl)cc(C2(C(F)(F)F)CC(Nc3ccc(Cl)c(-n4cnc(C(F)(F)F)c4)c3)=NO2)cc1Cl (stereo not shown) [I-16, N-[4-chloro-3-[4-(trifluoromethyl)imidazol-1-yl]phenyl]-5-(3,5-dichloro-4-fluoro-phenyl)-5-(trifluoromethyl)-4H-isoxazol-3-amine]	–	–	–	–	–	–	–	≥ 75	≥ 75	≥ 75	≥ 75	≥ 75	mortality at 2500 ppm (Myzus persicae): ≥ 75%
O=C(NCC(F)(F)F)c1cnn(-c2cc(NC3=NOC(c4cc(Cl)c(F)c(Cl)c4)(C(F)(F)F)C3)ccc2Cl)c1 (stereo not shown) [I-18, 1-[2-chloro-5-[[5-(3,5-dichloro-4-fluoro-phenyl)-5-(trifluoromethyl)-4H-isoxazol-3-yl]amino]phenyl]-N-(2,2,2-trifluoroethyl)pyrazole-4-carboxamide]	–	–	–	–	–	–	–	–	–	–	–	–	mortality at 300 ppm (Plutella xylostella; [1]): ≥ 75%; mortality at 2500 ppm (Heliothis virescens; [2]): ≥ 75%; mortality at 300 ppm (Dichromothrips corbetti; [3]): ≥ 75%; mortality at 2500 ppm (Anthonomus grandis; 2500 ppm, egg and larval mortality visually assessed after 5 days): ≥ 75%; mortality at 2500 ppm (Myzus persicae; [5]): ≥ 75%
CCN(C1=NOC(c2cc(Cl)c(F)c(Cl)c2)(C(F)(F)F)C1)c1ccc(C#N)c(-n2cncn2)c1 (stereo not shown) [I-20, 4-[[5-(3,5-dichloro-4-fluoro-phenyl)-5-(trifluoromethyl)-4H-isoxazol-3-yl]-ethyl-amino]-2-(1,2,4-triazol-1-yl)benzonitrile]	–	–	–	–	–	–	–	≥ 75	≥ 75	≥ 75	≥ 75	≥ 75	mortality at 300 ppm (Spodoptera eridania): ≥ 75%
COCN(C1=NOC(c2cc(Cl)c(F)c(Cl)c2)(C(F)(F)F)C1)c1ccc(C#N)c(-n2cncn2)c1 (stereo not shown) [I-22]	at least 75%	–	at least 75%	–	–	–	–	–	–	–	–	–	–
CCOC(=O)N(C1=NOC(c2cc(Cl)c(F)c(Cl)c2)(C(F)(F)F)C1)c1ccc(Cl)c(-n2cnc(C(F)(F)F)c2)c1 (stereo not shown) [I-26, ethyl N-[4-chloro-3-[4-(trifluoromethyl)imidazol-1-yl]phenyl]-N-[5-(3,5-dichloro-4-fluoro-phenyl)-5-(trifluoromethyl)-4H-isoxazol-3-yl]carbamate]	–	–	–	–	–	–	–	≥ 75	≥ 75	≥ 75	≥ 75	≥ 75	mortality at 300 ppm (Spodoptera eridania): ≥ 75%
N-[4-chloro-3-[4-(trifluoromethyl)pyrazol-1-yl]phenyl]-5-(3,5-dichloro-4-fluoro-phenyl)-N-(methoxymethyl)-5-(trifluoromethyl)-4H-isoxazol-3-amine [I-23]	at least 75%	–	at least 75%	–	–	–	at least 75%	–	–	–	–	–	–
